Several values for one entry are separate records, joined by “and”; a condition that tells them apart may be missing. Identical values can stand only once.
Columns and labels:
[1] = minipig: tissue distribution of radioactivity and unchanged compound; assay type: in vivo, Göttingen minipig; conditions: for concentration at 24 h: male, Göttingen, minipig, topical, 70 mg spiro-oxindole compound equivalents ointment/kg
From the text: The following tissues/organs were removed from the remaining carcass:
The urinary bladder from each animal was rinsed with saline and the washings discarded. Each section of the gastrointestinal tract wall was washed to remove contents (which were retained for analysis) prior to analysis. Remaining carcasses were discarded.

[2] = domestic pig joint penetration: concentration in synovial membrane; assay type: in vivo
Protocol: (§1) This study was conducted to evaluate the joint penetration, systemic plasma exposure and tissue distribution of the spiro-oxindole compound in domestic pigs following topical administration of a pharmaceutical composition utilized in the methods of the invention. Fifteen female pigs were used in this study with three pigs in each group. Beginning on Day 1, a pharmaceutical composition of the invention was topically applied to the left radiocarpal joint (carpus) and tibiotarsal joint (hock) twice daily (bid) for 17 days (34 applications) for Groups 1-4 and once daily (qd) for 17 days (17 applications) for Group 5. Pre-dose blood samples (prior to morning dosing) was collected on Days 2, 7, 10, 14 and 17. A full pharmacokinetic sampling was performed on Day 17 (post am dosing) at the following time points: 1, 2, 4, 8 and 12 hr. On the day of necropsy, Day 18, blood was collected prior to euthanasia, each pig was humanely euthanized and dorsal skin and muscle, liver, kidney, heart, lung, brain, intestine, fat, ovaries, urinary bladder, sciatic nerve, and skin, muscle, synovial membrane, and synovial fluid from all 4 joints (2 treated, left carpus and hock, and 2 untreated, right carpus and hock) was collected.
Doses were calculated by measuring the joint circumference and joint width (to include ˜2 cm above and below the joint) to calculate the total surface area for each individual dose. Group 1 received a 2% pharmaceutical composition of the invention and the dose volume for Group 1 was calculated using the total surface area and the designated dose volume of 3 μL/cm^2. The total dose volume was then converted from μL to mL to estimate the dose weight in grams, based on the composition density of 1 g/cm^3. Following is an example (not actual measurements) of calculating the dose:
For Groups 2-5, the dose volume was calculated using the total surface area and the designated dose volume of 3 μL/cm^2 (Groups 2, 3 and 5) or 1 μL/cm^2 (Group 4). The total dose volume was then converted from μL to mL to estimate the dose length in centimeters of a ribbon of the pharmaceutical composition when squeezed from a glaminate tube onto a metal metric ruler, based on the composition length-weight relationship of 1 cm of pharmaceutical composition being equal to 0.5 g of the composition (diameter of the tube opening was 0.87 cm).
The test compositions were topically applied an equal distance above and below the center of the joint, i.e., inter-carpal joint space (carpus) and inter-tarsal joint space (hock) of each animal to allow for complete coverage of the joint, including approximately 2 cm above and below the edges of the joint. The test composition was applied to the entire circumference of the designated area. All animals were dosed using the same distance above and below each joint center for consistency.
(§2) The dose volume (μL/cm^2) for the test pharmaceutical compositions was 3.0 μL/cm^2 for Groups 1, 2, 3 and 5 and 1.0 μL/cm^2 for Group 4.
(§3) The following tissue samples were collected after euthanasia: • Dorsal skin and muscle (from the mid-back) • Liver—Left Medial Lobe • Kidney—Right • Heart • Lung—Right diaphragmatic lobe • Brain—Right cerebral hemisphere • Intestine—mid-jejunum • Duodenum (10-15 cm length) from all 6 animals in Groups 1 and 2 • Fat • Ovary—Right • Urinary bladder • Sciatic nerve from both legs • Skin, muscle underlying site of administration and synovial membrane of all 4 joints (treated left carpus and hock and untreated right carpus and hock)

[3] = domestic pig joint penetration study: concentration in plasma; assay type: in vivo; conditions: for concentration in plasma, individual animals: 3.0 μL/cm^2 bid
Protocol: as §1, §2
Approximately 2 mL of whole blood was collected prior to the morning dose administration on Days 2, 7, 10, 14 and 17. A full pharmacokinetic profile sampling was performed on Day 17 after the morning dose administration at the following time points: 1, 2, 4, 8 and 12 hr. On the day of necropsy, Day 18, blood was collected prior to euthanasia.

[4] = domestic pig joint penetration study: concentration in liver tissue; assay type: in vivo
Protocol: as §1, §2, §3

[5] = previous topical clinical studies (PHN and EM) overall; conditions: human, in vivo
Protocol: Although not previously studied in patients with osteoarthritis, a topical formulation of the spiro-oxindole compound of the invention has been tested in clinical studies and was well tolerated by patients with postherpetic neuralgia (PHN) and erythromelalgia.
In general, the maximal concentrations of the spiro-oxindole compound following topical application are determined under “maximal use conditions,” taking into consideration such factors as ointment strength, application volume, application surface area, and frequency and duration of dosing.
Nevertheless, the exposure level anticipated in this study is expected to be higher than that observed in any single patient population administered a therapeutic dose a topical pharmaceutical composition of the invention. This study is therefore intended to help in the selection of a topical dose and regimen of a topical pharmaceutical composition of the invention.

[6] = domestic pig, topical administration to a joint

SMILES: O=C1N(Cc2ccc(C(F)(F)F)o2)c2ccccc2[C@]12COc1cc3c(cc12)OCO3 [spiro-oxindole compound, (S)-1′-{[5-(trifluoromethyl)furan-2-yl]methyl}spiro[furo[2,3-f][1,3]benzodioxole-7,3′-indol]-2′(1′H)one]
- tissue radioactivity concentrations in the majority of tissues analysed ([1]; limit of quantification ca 12-25 ng equivalents spiro-oxindole compound/g): below the limit of quantification
- concentration at 24 h ([1]; heart): 17.5 ng/g
- concentration at 24 h ([1]; liver): 11.3 ng/g
- concentration at 24 h ([1]; skin from the dose site): 1860 ng/g
- concentration at 24 h ([1]; white fat): 53.8 ng/g
- concentration in synovial membrane tissue, individual animals ([2]; G1 (#1-#3): 2% composition, 3.0 μL/cm^2 bid 17 days, Treated left carpus): 126.88 ng/g and 56.86 ng/g and 105.89 ng/g
- concentration in synovial membrane tissue, individual animals ([2]; G1 (#1-#3): 2% composition, 3.0 μL/cm^2 bid 17 days, Treated left hock): 152.13 ng/g and 38.86 ng/g and 54.04 ng/g
- concentration in synovial membrane tissue, individual animals ([2]; G1 (#1-#3): 2% composition, 3.0 μL/cm^2 bid 17 days, Untreated right carpus): 70.83 ng/g and 84.97 ng/g and 44.47 ng/g
- concentration in synovial membrane tissue, individual animals ([2]; G1 (#1-#3): 2% composition, 3.0 μL/cm^2 bid 17 days, Untreated right hock): 97.22 ng/g and 33.16 ng/g and 41.19 ng/g
- concentration in synovial membrane tissue, individual animals ([2]; G2 (#4-#6): 4% composition, 3.0 μL/cm^2 bid 17 days, Treated left carpus): 72.14 ng/g and 269.82 ng/g and 183.72 ng/g
- concentration in synovial membrane tissue, individual animals ([2]; G2 (#4-#6): 4% composition, 3.0 μL/cm^2 bid 17 days, Treated left hock): 132.05 ng/g and 95.93 ng/g and 131.87 ng/g
- concentration in synovial membrane tissue, individual animals ([2]; G2 (#4-#6): 4% composition, 3.0 μL/cm^2 bid 17 days, Untreated right carpus): 114.15 ng/g and 100.42 ng/g and 129.30 ng/g
- concentration in synovial membrane tissue, individual animals ([2]; G2 (#4-#6): 4% composition, 3.0 μL/cm^2 bid 17 days, Untreated right hock): 92.75 ng/g and 69.80 ng/g and 98.28 ng/g
- concentration in synovial membrane tissue, individual animals ([2]; G3 (#7-#9): 8% composition, 3.0 μL/cm^2 bid 17 days, Treated left carpus): 708.62 ng/g and 737.86 ng/g and 137.46 ng/g
- concentration in synovial membrane tissue, individual animals ([2]; G3 (#7-#9): 8% composition, 3.0 μL/cm^2 bid 17 days, Treated left hock): 252.46 ng/g and 576.83 ng/g and 1917.93 ng/g
- concentration in synovial membrane tissue, individual animals ([2]; G3 (#7-#9): 8% composition, 3.0 μL/cm^2 bid 17 days, Untreated right carpus): 54.19 ng/g and 185.83 ng/g and 130.63 ng/g
- concentration in synovial membrane tissue, individual animals ([2]; G3 (#7-#9): 8% composition, 3.0 μL/cm^2 bid 17 days, Untreated right hock): 82.74 ng/g and 737.82 ng/g and 167.55 ng/g
- concentration in synovial membrane tissue, individual animals ([2]; G4 (#10-#12): 8% composition, 1.0 μL/cm^2 bid 17 days, Treated left carpus): 49.99 ng/g and 59.22 ng/g and 159.68 ng/g
- concentration in synovial membrane tissue, individual animals ([2]; G4 (#10-#12): 8% composition, 1.0 μL/cm^2 bid 17 days, Treated left hock): 291.56 ng/g and 38.32 ng/g and 3171.10 ng/g
- concentration in synovial membrane tissue, individual animals ([2]; G4 (#10-#12): 8% composition, 1.0 μL/cm^2 bid 17 days, Untreated right carpus): 34.85 ng/g and 1772.86 ng/g and 46.92 ng/g
- concentration in synovial membrane tissue, individual animals ([2]; G4 (#10-#12): 8% composition, 1.0 μL/cm^2 bid 17 days, Untreated right hock): 26.20 ng/g and 0.00 ng/g and 45.29 ng/g
- concentration in synovial membrane tissue, individual animals ([2]; G5 (#13-#15): 8% composition, 3.0 μL/cm^2 qd 17 days, Treated left carpus): 702.22 ng/g and 150.00 ng/g and 35.31 ng/g
- concentration in synovial membrane tissue, individual animals ([2]; G5 (#13-#15): 8% composition, 3.0 μL/cm^2 qd 17 days, Treated left hock): 31.44 ng/g and 100.00 ng/g and 55.90 ng/g
- concentration in synovial membrane tissue, individual animals ([2]; G5 (#13-#15): 8% composition, 3.0 μL/cm^2 qd 17 days, Untreated right carpus): 11.61 ng/g and 25.25 ng/g and 79.58 ng/g
- concentration in synovial membrane tissue, individual animals ([2]; G5 (#13-#15): 8% composition, 3.0 μL/cm^2 qd 17 days, Untreated right hock): 18.69 ng/g and 37.98 ng/g and 21.70 ng/g
- concentration in synovial membrane tissue of treated joint (in words) [2, 6]: micromolar concentrations
- concentration in plasma, individual animals ([3]; G1 (#1-#3): 2% composition, Day 2 Before dosing): 0.34 ng/mL
- concentration in plasma, individual animals ([3]; G1 (#1-#3): 2% composition, Day 7 Before dosing): 0.97 ng/mL
- concentration in plasma, individual animals ([3]; G1 (#1-#3): 2% composition, Day 10 Before dosing): 1.54 ng/mL
- concentration in plasma, individual animals ([3]; G1 (#1-#3): 2% composition, Day 14 Before dosing): 1.10 ng/mL
- concentration in plasma, individual animals ([3]; G1 (#1-#3): 2% composition, Day 17 1 hour after dosing): 1.21 ng/mL
- concentration in plasma, individual animals ([3]; G1 (#1-#3): 2% composition, Day 17 2 hour after dosing): 1.07 ng/mL
- concentration in plasma, individual animals ([3]; G1 (#1-#3): 2% composition, Day 17 4 hour after dosing): 1.04 ng/mL
- concentration in plasma, individual animals ([3]; G1 (#1-#3): 2% composition, Day 17 8 hour after dosing): 1.30 ng/mL
- concentration in plasma, individual animals ([3]; G1 (#1-#3): 2% composition, Day 17 12 hour after dosing): 11.38 ng/mL
- concentration in plasma, individual animals ([3]; G1 (#1-#3): 2% composition, Day 17 Before dosing): 2.70 ng/mL
- concentration in plasma, individual animals ([3]; G1 (#1-#3): 2% composition, Day 18): 1.60 ng/mL
- concentration in plasma, individual animals ([3]; G2 (#4-#6): 4% composition, Day 2 Before dosing): 0.84 ng/mL and 0.86 ng/mL
- concentration in plasma, individual animals ([3]; G2 (#4-#6): 4% composition, Day 7 Before dosing): 1.73 ng/mL
- concentration in plasma, individual animals ([3]; G2 (#4-#6): 4% composition, Day 10 Before dosing): 1.79 ng/mL
- concentration in plasma, individual animals ([3]; G2 (#4-#6): 4% composition, Day 14 Before dosing): 2.47 ng/mL
- concentration in plasma, individual animals ([3]; G2 (#4-#6): 4% composition, Day 17 1 hour after dosing): 2.47 ng/mL
- concentration in plasma, individual animals ([3]; G2 (#4-#6): 4% composition, Day 17 2 hour after dosing): 3.47 ng/mL
- concentration in plasma, individual animals ([3]; G2 (#4-#6): 4% composition, Day 17 4 hour after dosing): 2.72 ng/mL
- concentration in plasma, individual animals ([3]; G2 (#4-#6): 4% composition, Day 17 8 hour after dosing): 1.94 ng/mL
- concentration in plasma, individual animals ([3]; G2 (#4-#6): 4% composition, Day 17 12 hour after dosing): 12.17 ng/mL and 15.72 ng/mL
- concentration in plasma, individual animals ([3]; G2 (#4-#6): 4% composition, Day 17 Before dosing): 3.25 ng/mL
- concentration in plasma, individual animals ([3]; G2 (#4-#6): 4% composition, Day 18): 5.41 ng/mL and 2.83 ng/mL
- plasma concentration / systemic exposure (in words) [3, 6]: nanomolar
- concentration in liver tissue, individual animals ([4]; G1 (#1-#3): 2% composition, 3.0 μL/cm^2 bid 17 days): 17.0 ng/g and 2.2 ng/g and 14.0 ng/g
- concentration in liver tissue, individual animals ([4]; G2 (#4-#6): 4% composition, 3.0 μL/cm^2 bid 17 days): 49.1 ng/g and 29.3 ng/g
- concentration in liver tissue, individual animals ([4]; G3 (#7-#9): 8% composition, 3.0 μL/cm^2 bid 17 days): 47.2 ng/g and 48.2 ng/g and 21.6 ng/g
- concentration in liver tissue, individual animals ([4]; G4 (#10-#12): 8% composition, 1.0 μL/cm^2 bid 17 days): 0.0 ng/g and 39.1 ng/g and 13.0 ng/g
- concentration in liver tissue, individual animals ([4]; G5 (#13-#15): 8% composition, 3.0 μL/cm^2 qd 17 days): 3.6 ng/g and 25.1 ng/g and 0.0 ng/g
- highest observed individual plasma concentration [5]: 14.5 ng/mL

Reference: patent US20150216794A1, “METHODS OF TREATING PAIN ASSOCIATED WITH OSTEOARTHRITIS OF A JOINT WITH A TOPICAL FORMULATION OF A SPIRO-OXINDOLE COMPOUND” (IVAX International GmbH, priority 2014, published 2015)
